Values of other authors in patent US20260027014A1, “DEVICES AND METHODS RELATED TO COLORIMETRIC DETECTION FOR DENTAL USES” (CaviSense Inc., priority 2022, published 2026).
Read-outs that look alike come from different tables or passages of the source.

solubility (in methanol): 1 g/100 ml | solubility (in water): 210 g/100 mL
SMILES: OC[C@H]1O[C@@](CO)(O[C@H]2O[C@H](CO)[C@@H](O)[C@H](O)[C@H]2O)[C@@H](O)[C@@H]1O [sucrose]
